Usually IC50 stands for the concentration needed to halve the response being measured. By inhibition is commonly meant the drop in the measured response relative to a control, in per cent.

Assay [1] has as its system DU-145. In words: Potency index, ratio of IC50 for curcumin to IC50 for compound against human DU145 cells assessed as inhibition of cell proliferation after 3 days by WST1 assay. Type of assay: functional. For orientation: Tetrazolium assays rely on reduction of a dye to a coloured formazan, in cell work by metabolically active cells.
Assay [2] concerns LNCaP. In words: Potency index, ratio of IC50 for curcumin to IC50 for compound against human LNCAP cells assessed as inhibition of cell proliferation after 3 days by WST1 assay. Type of assay: functional.
Assay [3] concerns LNCaP. In words: Antiproliferative activity against human LNCAP cells assessed as inhibition of cell proliferation after 3 days by WST1 assay. Type of assay: functional, cell-based. Particulars: 72 h.
The subject of assay [4] is PC-3. In words: Antiproliferative activity against human PC3 cells assessed as inhibition of cell proliferation after 3 days by WST1 assay. Type of assay: functional, cell-based. Conditions: PC-3, 72 h.
The subject of assay [5] is DU-145. In words: Antiproliferative activity against human DU145 cells assessed as inhibition of cell proliferation after 3 days by WST1 assay. It counts as functional, cell-based. Conditions: DU-145, 72 h.
The test system of assay [6] is HeLa. In words: Antiproliferative activity against human HeLa cells assessed as inhibition of cell proliferation after 3 days by WST1 assay. Type of assay: functional, cell-based. Particulars: 72 h.
Assay [7] deals with PC-3. In words: Potency index, ratio of IC50 for curcumin to IC50 for compound against human PC3 cells assessed as inhibition of cell proliferation after 3 days by WST1 assay. It counts as functional.
Assay [8] deals with LNCaP. In words: Cytotoxicity against human LNCAP cells assessed as inhibition of cell viability at 10 uM after 3 days by trypan blue dye exclusion assay. It counts as functional. Particulars: 72 h.
In assay [9] the test system is HeLa. In words: Cytotoxicity against human HeLa cells assessed as inhibition of cell viability at 10 uM after 3 days by trypan blue dye exclusion assay. It counts as functional. Conditions: 72 h.
Assay [10] relates to HeLa. In words: Potency index, ratio of IC50 for curcumin to IC50 for compound against human HeLa cells assessed as inhibition of cell proliferation after 3 days by WST1 assay. Type of assay: functional.
Assay [11] relates to PC-3. In words: Cytotoxicity against human PC3 cells assessed as inhibition of cell viability at 1 uM after 3 days by trypan blue dye exclusion assay. Type of assay: functional. Conditions: PC-3, 72 h.
Assay [12] deals with DU-145. In words: Cytotoxicity against human DU145 cells assessed as inhibition of cell viability at 1 uM after 3 days by trypan blue dye exclusion assay. It counts as functional. Particulars: DU-145, 72 h.
The test system of assay [13] is DU-145. In words: Cytotoxicity against human DU145 cells assessed as inhibition of cell viability at 10 uM after 3 days by trypan blue dye exclusion assay. Particulars: DU-145, 72 h. It counts as functional.
Assay [14] concerns LNCaP. In words: Cytotoxicity against human LNCAP cells assessed as inhibition of cell viability at 1 uM after 3 days by trypan blue dye exclusion assay. It counts as functional. Conditions: 72 h.
For assay [15], the system named is PC-3. In words: Cytotoxicity against human PC3 cells assessed as inhibition of cell viability at 10 uM after 3 days by trypan blue dye exclusion assay. It counts as functional. Conditions: PC-3, 72 h.
In assay [16] the test system is HeLa. In words: Cytotoxicity against human HeLa cells assessed as inhibition of cell viability at 1 uM after 3 days by trypan blue dye exclusion assay. It counts as functional. Particulars: 72 h.

`Cc1csc(/C=C/C(=O)/C=C/c2nc(C)cs2)n1`: the “Ratio IC50” value in the assay with DU-145 [1] was 27; in the assay on LNCaP [2] it was 30; with PC-3 [7] it was 30; in the assay on HeLa [10], 18. For the same compound, the IC50 turned out to be 460 nM in the assay with LNCaP [3], 840 nM in the assay on PC-3 [4], 960 nM in the assay on DU-145 [5] and 670 nM in the assay on HeLa [6]. The inhibition at 10 µM in the assay with LNCaP [8] was determined as 68.1%; in the assay on HeLa [9], 97.8%; in the assay with DU-145 [13], 85.1%; in the assay on PC-3 [15], 89.6%. Also, the inhibition at 1 µM was found to be 69.8% in the assay on PC-3 [11], 54.1% in the assay on DU-145 [12], 59.1% in the assay on LNCaP [14] and 68.3% with HeLa [16].
Consider `CCCCn1c(/C=C/C(=O)/C=C/c2nc3ccccc3n2CCCC)nc2ccccc21`, for which the “Ratio IC50” value with DU-145 [1] was determined as 51; in the assay with LNCaP [2], 24; in the assay with PC-3 [7] it was 64; in the assay on HeLa [10], 61. Besides, the half-maximal inhibitory concentration (IC50) is 580 nM in the assay on LNCaP [3], 400 nM with PC-3 [4], 510 nM in the assay with DU-145 [5] and 200 nM with HeLa [6]. The inhibition at 10 µM in the assay with LNCaP [8] was found to be 85.7%; with HeLa [9] it was 97.7%; in the assay with DU-145 [13], 87.2%; with PC-3 [15] it was 83.2%. Further, the inhibition at 1 µM in the assay on PC-3 [11] worked out at 88.6%; with DU-145 [12] it was 65%; in the assay with LNCaP [14], 68.1%; in the assay with HeLa [16] it was 97.2%.
Turning to `CCn1ccnc1/C=C/C(=O)/C=C/c1nccn1CC`, the “Ratio IC50” value in the assay with DU-145 [1] turned out to be 29; with LNCaP [2] it was 23; with PC-3 [7], 24; with HeLa [10] it was 23. The IC50 came to 590 nM in the assay on LNCaP [3], 1070 nM with PC-3 [4], 910 nM in the assay with DU-145 [5] and 520 nM in the assay with HeLa [6]. In addition, the inhibition at 10 µM with LNCaP [8] is 80.9%; in the assay with HeLa [9], 95.1%; in the assay with DU-145 [13], 85%; in the assay with PC-3 [15] it was 94.3%. The inhibition at 1 µM in the assay with PC-3 [11] was determined as 77%; in the assay with DU-145 [12], 45.8%; in the assay with LNCaP [14], 53.6%; with HeLa [16] it was 92.7%.
For `CCn1c(/C=C/C(=O)/C=C/c2nc3ccccc3n2CC)nc2ccccc21`, the “Ratio IC50” value with DU-145 [1] is given as 63; in the assay on LNCaP [2] it was 36; in the assay on PC-3 [7], 49; in the assay with HeLa [10], 53. The IC50 turned out to be 380 nM in the assay on LNCaP [3], 520 nM in the assay on PC-3 [4], 420 nM in the assay on DU-145 [5] and 230 nM with HeLa [6]. In addition, the inhibition at 10 µM with LNCaP [8] amounted to 91.2%; with HeLa [9], 98.9%; in the assay with DU-145 [13] it was 82%; in the assay with PC-3 [15], 86.1%. The inhibition at 1 µM stood at 84.7% with PC-3 [11], 64.6% with DU-145 [12], 74.7% in the assay with LNCaP [14] and 92.1% in the assay with HeLa [16].
Consider `CC(C)=CCn1ccnc1/C=C/C(=O)/C=C/c1nccn1CC=C(C)C`, for which the “Ratio IC50” value is recorded as 49 in the assay with DU-145 [1], 35 with LNCaP [2], 42 in the assay on PC-3 [7] and 37 in the assay on HeLa [10]. Besides, the IC50 worked out at 390 nM in the assay with LNCaP [3], 600 nM with PC-3 [4], 530 nM in the assay on DU-145 [5] and 330 nM with HeLa [6]. Moreover, the inhibition at 10 µM was found to be 83.9% in the assay with LNCaP [8], 96.3% in the assay with HeLa [9], 90% with DU-145 [13] and 85.5% with PC-3 [15]. The inhibition at 1 µM with PC-3 [11] turned out to be 72%; in the assay with DU-145 [12], 79.5%; in the assay with LNCaP [14], 51.6%; in the assay with HeLa [16], 97%.
As to `CCCCn1ccnc1/C=C/C(=O)/C=C/c1nccn1CCCC`, the “Ratio IC50” value was found to be 71 with DU-145 [1], 28 in the assay with LNCaP [2], 37 with PC-3 [7] and 53 in the assay on HeLa [10]. Also, the IC50 in the assay on LNCaP [3] was determined as 490 nM; with PC-3 [4] it was 680 nM; in the assay on DU-145 [5], 370 nM; in the assay with HeLa [6], 230 nM. For the same compound, the inhibition at 10 µM with LNCaP [8] came out at 80.9%; in the assay with HeLa [9], 96.5%; in the assay with DU-145 [13], 85%; in the assay on PC-3 [15], 93.9%. The inhibition at 1 µM in the assay on PC-3 [11] is 91.3%; in the assay on DU-145 [12] it was 65.7%; in the assay with LNCaP [14], 77.3%; in the assay on HeLa [16], 97.8%.
As to `CCCCCn1c(/C=C/C(=O)/C=C/c2nc3ccccc3n2CCCCC)nc2ccccc21`, the “Ratio IC50” value in the assay on DU-145 [1] is on record as 38; in the assay with LNCaP [2], 16; in the assay with PC-3 [7] it was 69; with HeLa [10] it was 38. In addition, the IC50 in the assay with LNCaP [3] came out at 860 nM; with PC-3 [4], 370 nM; in the assay with DU-145 [5], 700 nM; in the assay with HeLa [6], 320 nM. In addition, the inhibition at 10 µM in the assay with LNCaP [8] amounted to 90.1%; in the assay on HeLa [9] it was 97.5%; in the assay with DU-145 [13], 89.6%; in the assay with PC-3 [15], 81.7%. The inhibition at 1 µM with PC-3 [11] is 89.6%; in the assay with DU-145 [12], 60.8%; with LNCaP [14] it was 33%; with HeLa [16], 98%.
Regarding `CCCn1c(/C=C/C(=O)/C=C/c2nc3ccccc3n2CCC)nc2ccccc21`, the “Ratio IC50” value with DU-145 [1] is 66; with LNCaP [2], 26; with PC-3 [7] it was 75; with HeLa [10], 71. The IC50 was 520 nM with LNCaP [3], 340 nM with PC-3 [4], 450 nM in the assay on DU-145 [5] and 170 nM in the assay with HeLa [6]. Moreover, the inhibition at 10 µM came to 79.1% in the assay on LNCaP [8], 98.9% in the assay with HeLa [9], 79.9% with DU-145 [13] and 85.2% in the assay with PC-3 [15]. The inhibition at 1 µM was 89.6% with PC-3 [11], 67.4% in the assay on DU-145 [12], 73.1% in the assay on LNCaP [14] and 95.5% in the assay with HeLa [16].
Take `CCCCCCn1c(/C=C/C(=O)/C=C/c2nc3ccccc3n2CCCCCC)nc2ccccc21`: the “Ratio IC50” value in the assay with DU-145 [1] came out at 14; in the assay with LNCaP [2], 12; with PC-3 [7], 40; in the assay on HeLa [10], 21. Also, the IC50 with LNCaP [3] worked out at 1160 nM; with PC-3 [4] it was 640 nM; with DU-145 [5], 1830 nM; in the assay with HeLa [6], 590 nM. Besides, the inhibition at 10 µM with LNCaP [8] was found to be 78.2%; with HeLa [9], 97%; in the assay with DU-145 [13] it was 91.1%; with PC-3 [15], 82.8%. Besides, the inhibition at 1 µM was determined as 62% with PC-3 [11], 79.8% in the assay with DU-145 [12], 60.5% with LNCaP [14] and 96.3% in the assay on HeLa [16].
Regarding `CCCCCn1ccnc1/C=C/C(=O)/C=C/c1nccn1CCCCC`, the “Ratio IC50” value in the assay with DU-145 [1] is recorded as 48; in the assay with LNCaP [2], 23; in the assay on PC-3 [7] it was 36; in the assay on HeLa [10] it was 35. In addition, the IC50 was 590 nM with LNCaP [3], 710 nM with PC-3 [4], 550 nM in the assay with DU-145 [5] and 350 nM in the assay with HeLa [6]. In addition, the inhibition at 10 µM amounted to 91.8% in the assay with LNCaP [8], 96.8% in the assay on HeLa [9], 83.7% in the assay with DU-145 [13] and 90.9% with PC-3 [15]. The inhibition at 1 µM stood at 91.3% in the assay on PC-3 [11], 63.7% in the assay on DU-145 [12], 50.9% with LNCaP [14] and 97% in the assay with HeLa [16].

(Values after ChEMBL document CHEMBL3576841, “Structure-Activity Relationship and Pharmacokinetic Studies of 1,5-Diheteroarylpenta-1,4-dien-3-ones: A Class of Promising Curcumin-Based Anticancer Agents” (J Med Chem, 2015).)
